According to ChEMBL document CHEMBL1136232, “Novel inhibitors of an emerging target in Mycobacterium tuberculosis; substituted thiazolidinones as inhibitors of dTDP-rhamnose synthesis” (2003):
Converted amounts (≈) assume the structure as drawn. The source made the active and inactive calls. The rule behind the calls is not given here.

Key:
[1] = test system: Mycobacterium tuberculosis; assay: Inhibitory activity against Mycobacterium tuberculosis H37Ra; assay type: functional
[2] = test system: Mycobacterium tuberculosis; assay: Percentage inhibition against Mycobacterium tuberculosis at a concentration of 20 uM; assay type: functional
[3] = test system: Mycolicibacterium smegmatis; assay: Percentage inhibition against Rm1BCD at 20 uM
[4] = test system: Mycolicibacterium smegmatis; assay: Percentage inhibition against Rm1D at 20 uM
[5] = test system: Mycolicibacterium smegmatis; assay: Percentage inhibition against Rm1C at 20 uM; NA is not active
[6] = test system: Mycolicibacterium smegmatis; assay: Percentage inhibition against Rm1D at 20 uM; NA is not active
[7] = test system: Mycolicibacterium smegmatis; assay: Percentage inhibition against Rm1C at 20 uM

SMILES	MIC [1]	inhibition at 20 µM [2]	also measured
CCOC(=O)C(C(C)C)N1C(=O)C(C)SC1c1ccc(-c2ccccc2)cc1 (stereo unspecified)	50 µg/mL (≈ 126 µM)	52.5%	
CCOC(=O)C(C)N1C(=O)CSC1c1cccc(Oc2ccccc2)c1 (stereo unspecified)	50 µg/mL (≈ 135 µM)	51%	
COc1cc(C2SC(C)C(=O)N2C(Cc2ccc([N+](=O)[O-])cc2)C(=O)O)cc(OC)c1O (stereo unspecified)	25 µg/mL (≈ 54.1 µM)		inhibition [3]: 42%; inhibition [4]: 71%; inhibition [5]: inactive
CCOC(=O)C(C(C)C)N1C(=O)C(C)SC1c1ccc2c(c1)c1ccccc1n2CC (stereo unspecified)	25 µg/mL (≈ 57 µM)	52%	
O=C(O)C(Cc1cc2ccccc2[nH]1)N1C(=O)CSC1c1ccc(-c2ccccc2)cc1 (stereo unspecified)	50 µg/mL (≈ 113 µM)	66.5%	
CCn1c2ccccc2c2cc(C3SC(C)C(=O)N3C(Cc3c[nH]c4ccccc34)C(=O)O)ccc21 (stereo unspecified)	50 µg/mL (≈ 100 µM)	70.5%	
CC[C@H](C)C(C(=O)OC)N1C(=O)CSC1c1ccc(N(C)C)cc1 (stereo partly specified)	> 200 µg/mL	110%	
CCOC(=O)C(C(C)C)N1C(=O)C(C)SC1c1cccc(OC)c1O (stereo unspecified)	25 µg/mL (≈ 68 µM)	60%	
CCn1c2ccccc2c2ccc(C3SCC(=O)N3C(Cc3c[nH]c4ccccc34)C(=O)OC)cc21 (stereo unspecified)	> 200 µg/mL		inhibition [3]: 45%; inhibition [6]: inactive; inhibition [7]: 48%
COC(=O)C(CCSC)N1C(=O)CSC1c1ccc(N(C)C)cc1 (stereo unspecified)	> 200 µg/mL	100%	
CCOC(=O)CCC(C(=O)OCC)N1C(=O)CSC1c1cccc(Oc2ccccc2)c1 (stereo unspecified)	50 µg/mL (≈ 109 µM)	64%	
